Measured values reported in ChEMBL document CHEMBL1201862, “PubChem BioAssay data set” (2004).
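Cultured in 96-well plates, cells were exposed to test compound for 48 hours across five concentrations. At the GI50, growth is halved.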 The source made the active and inactive calls. Cut-off read from the data, not from the text of the source: active = GI50 up to about 1.1 µM and inactive = higher.

What was measured:
Experiment in all cases: NCI tumour cell line growth inhibition, 48 h
SNB-78 = test system: SNB-78
DMS-273 = test system: DMS-273
HOP-18 = test system: HOP-18
DLD-1 = test system: DLD-1
XF498 = test system: XF498
RXF 631 = test system: RXF 631
KM-20L2 = test system: KM-20L2
LXFL 529 = test system: LXFL 529
M19-MEL = test system: M19-MEL

| SMILES | GI50 (SNB-78) | GI50 (DMS-273) | GI50 (HOP-18) | GI50 (DLD-1) | GI50 (XF498) | GI50 (RXF 631) | GI50 (KM-20L2) | GI50 (LXFL 529) | GI50 (M19-MEL) |
| --- | --- | --- | --- | --- | --- | --- | --- | --- | --- |
| CCCC1C[C@H]2CCCCN2[C@H]2CCCN12 (stereo partly drawn) | > 100 µM (inactive) | > 61.9 µM (inactive) | > 100 µM (inactive) | > 50.4 µM (inactive) | > 100 µM (inactive) | > 100 µM (inactive) | > 88.3 µM (inactive) | > 69.3 µM (inactive) |  |
| C=C1C(C)C2C(Cc3ccccc3)NC(=O)C23C(OC(C)=O)C=CC(C)(O)C(=O)C(C)C/C=C/C3C1O (stereo not drawn) | 0.116 µM (active) | 1.96 µM (inactive) |  | 0.78 µM (active) | 2.01 µM (inactive) | 0.117 µM (active) | 0.158 µM (active) | 3.14 µM (inactive) | 16.1 µM (inactive) |
| CCCCCCCCCCCCCCCc1nnc(SCC(=O)O)[nH]1 | > 100 µM (inactive) |  | > 100 µM (inactive) | 23.4 µM (inactive) | 65.8 µM (inactive) | 19.6 µM (inactive) |  | 22.8 µM (inactive) |  |
| Cc1cc(C=O)c2c(=O)c3c(O)ccc(/C=C/C(C)C)c3oc2c1 |  | 48.3 µM (inactive) |  | 70.1 µM (inactive) |  |  | > 100 µM (inactive) | 43.4 µM (inactive) | 36.7 µM (inactive) |
| CC(=O)C1Cn2c(=O)c3cc4ccccc4cc3c(=O)n2C=C1C (stereo not drawn) | > 100 µM (inactive) | > 100 µM (inactive) |  | > 100 µM (inactive) | > 100 µM (inactive) | > 100 µM (inactive) | > 100 µM (inactive) | 83.4 µM (inactive) | > 100 µM (inactive) |
| CCOC(=O)NC1=C(N2CC2)C(=O)C(NC(=O)OCC)=C(N2CC2)C1=O [DIAZIQUONE] | 7.36 µM (inactive) | 0.596 µM (active) | 6.35 µM (inactive) | 7.38 µM (inactive) | 3.67 µM (inactive) |  | 6.93 µM (inactive) | 4.92 µM (inactive) | 5.38 µM (inactive) |
| COc1cc2c(cc1O)C=NCC2 | > 100 µM (inactive) | > 100 µM (inactive) |  | > 100 µM (inactive) | > 100 µM (inactive) |  | > 100 µM (inactive) | > 100 µM (inactive) | > 100 µM (inactive) |
| N#C/C(=C(/S)Nc1ccccc1)c1nc2ccccc2[nH]1 |  | > 10 µM (inactive) | > 10 µM (inactive) | > 10 µM (inactive) | > 10 µM (inactive) |  | > 10 µM (inactive) | > 10 µM (inactive) | > 10 µM (inactive) |
| CC(C)C(=O)/C=C/c1ccc(Cl)cc1 |  | 3.99 µM (inactive) | 4.9 µM (inactive) | 11.9 µM (inactive) | 7.78 µM (inactive) |  | 26.2 µM (inactive) | 14.9 µM (inactive) | 14.4 µM (inactive) |
| COc1cc(C2c3cc4c(cc3[C@@H](N(C)c3ccc(N(C)C)cc3)C3COC(=O)C23)OCO4)cc(OC)c1O (stereo partly drawn) |  | 0.291 µM (active) | 13.4 µM (inactive) | 0.443 µM (active) | 0.286 µM (active) | 0.357 µM (active) | 0.21 µM (active) | 0.312 µM (active) | 0.721 µM (active) |
| CN(C)/C(N)=N\C#N | > 100 µM (inactive) | > 100 µM (inactive) | > 100 µM (inactive) | 48.9 µM (inactive) |  | > 100 µM (inactive) | > 100 µM (inactive) | > 100 µM (inactive) | 83.6 µM (inactive) |
| NC1=NN(c2ccccc2)C(=O)C1/C(=N\NC(=O)c1cc2ccccc2cc1O)C(=O)Nc1cccc(C(F)(F)F)c1 (stereo not drawn) | 44 µM (inactive) |  | 21.2 µM (inactive) | 36.6 µM (inactive) | 64.9 µM (inactive) |  | 32.6 µM (inactive) | 39.3 µM (inactive) | 35.2 µM (inactive) |
| CC1(C)C(=O)C(C)(C)C1=NN | > 100 µM (inactive) | > 100 µM (inactive) |  | > 100 µM (inactive) | > 100 µM (inactive) |  | > 100 µM (inactive) | > 100 µM (inactive) | > 100 µM (inactive) |
| O=C1C(NCCO)=C(N2CC2)C(=O)C(NCCO)=C1N1CC1 | > 100 µM (inactive) | 5.46 µM (inactive) | > 100 µM (inactive) | > 46.2 µM (inactive) | 53.3 µM (inactive) |  | > 100 µM (inactive) | > 51.6 µM (inactive) | 28.5 µM (inactive) |
| NC(=O)c1c[se]c(C2OC(COP(=O)(O)CP(=O)(O)OCC3OC(n4cnc5c(N)ncnc54)C(O)C3O)C(O)C2O)n1 (stereo not drawn) | > 100 µM (inactive) | 38.6 µM (inactive) | > 100 µM (inactive) | 55.5 µM (inactive) | > 100 µM (inactive) |  | 74.5 µM (inactive) | 51.4 µM (inactive) | > 100 µM (inactive) |
| COc1cccc(NC(=O)CSc2nnc(-c3ccc(NC(C)=O)cc3)o2)c1 | > 100 µM (inactive) | > 100 µM (inactive) | 14 µM (inactive) | > 100 µM (inactive) |  |  | 94.6 µM (inactive) | > 100 µM (inactive) | > 100 µM (inactive) |
| COc1ccc(C(CCC(C)=O)C(=O)O)cc1OC (stereo not drawn) | > 100 µM (inactive) | > 100 µM (inactive) | > 100 µM (inactive) | > 100 µM (inactive) | > 100 µM (inactive) |  | > 100 µM (inactive) |  | > 100 µM (inactive) |
| O=[N+]([O-])c1ccc(C[P+]2(c3ccccc3)CCCCC2)cc1.[O-][Cl+3]([O-])([O-])[O-] |  | > 100 µM (inactive) | > 100 µM (inactive) | > 100 µM (inactive) | < 0.01 µM (active) |  | > 100 µM (inactive) | 97.7 µM (inactive) |  |
| CCSC(SCC)=C1C(=O)N(c2ccccc2)N=C1C | 18.6 µM (inactive) | 16.1 µM (inactive) | 13.2 µM (inactive) | 11.8 µM (inactive) | 10.6 µM (inactive) |  | 16.8 µM (inactive) | 10 µM (inactive) | 0.378 µM (active) |
| CCOc1ccc(NCc2cc(OC)c(OC)c(OC)c2)cc1 |  |  |  | 0.807 µM (active) |  |  | 0.333 µM (active) |  |  |
| Nc1cccc(S(=O)(=O)NCC(=O)O)c1 | > 100 µM (inactive) | > 100 µM (inactive) | > 100 µM (inactive) | > 100 µM (inactive) | > 100 µM (inactive) | > 100 µM (inactive) | > 100 µM (inactive) | > 100 µM (inactive) | > 100 µM (inactive) |
| COc1ccc(C[C@]23CCC(=O)N2CCc2cc(OC)c(O)cc23)cc1O | > 100 µM (inactive) | > 100 µM (inactive) | > 100 µM (inactive) |  |  | > 100 µM (inactive) | > 100 µM (inactive) | > 100 µM (inactive) | > 100 µM (inactive) |
| O=C1NC(=O)C2C3C=CC(C12)C1C2C(=O)NC(=O)C2C31 (stereo not drawn) | 204 µM (inactive) | 116 µM (inactive) | 222 µM (inactive) | 228 µM (inactive) | 143 µM (inactive) |  | 208 µM (inactive) |  | 177 µM (inactive) |
| CC1(O)CCC2(C)C(=O)C1(C)CCC21OCCO1 (stereo not drawn) |  | > 100 µM (inactive) | > 100 µM (inactive) | > 100 µM (inactive) | > 100 µM (inactive) |  |  | > 100 µM (inactive) | > 100 µM (inactive) |
| COc1ccc(CNc2cc(OC)cc(OC)c2)cc1 | 29.6 µM (inactive) |  |  |  | 63.5 µM (inactive) |  |  | 49.3 µM (inactive) | 72.3 µM (inactive) |
| CCOP1(=O)C=CC(Cl)=C(C)C1 (stereo not drawn) | 18.9 µM (inactive) |  | 17.4 µM (inactive) | 6.97 µM (inactive) | 19 µM (inactive) |  | 16.9 µM (inactive) | 12.4 µM (inactive) | 21.6 µM (inactive) |
| CC(C)CC(NC(=O)c1cccc(O)c1O)C(=O)NCc1cc(CNC(=O)C(CC(C)C)NC(=O)c2cccc(O)c2O)cc(CNC(=O)C(CC(C)C)NC(=O)c2cccc(O)c2O)c1 (stereo not drawn) | 29.1 µM (inactive) | 15.6 µM (inactive) | 24 µM (inactive) | 20.9 µM (inactive) |  |  | 7.11 µM (inactive) | 2.82 µM (inactive) |  |
| Cc1ccc(S(=O)(=O)Nc2cccc3c(=O)nc[nH]c23)cc1 | > 100 µM (inactive) | > 100 µM (inactive) | 53 µM (inactive) |  | > 100 µM (inactive) |  | > 100 µM (inactive) | > 86.7 µM (inactive) | > 100 µM (inactive) |
